SMILES strings stand for the structures. Values after ≈ are worked out from the molar mass of the structure shown. Active and inactive are the calls of the source. The rule behind the calls is not given here.

Type in all cases: functional, cell-based
Experiment [1] relates to MDA-MB-231. Kind of experiment: Inhibition of human MDA-MB-231 cells invasion by Matrigel cell invasion assay.
Experiment [2] deals with MDA-MB-231. Nature of the experiment: Inhibition of human MDA-MB-231 cells invasion at <50 ug/mL by Matrigel cell invasion assay.
The test system of experiment [3] is MDA-MB-231. Kind of experiment: Inhibition of human MDA-MB-231 cells invasion at 2.5 ug/mL by Matrigel cell invasion assay.

The term IC50 denotes the concentration at which inhibition is half-maximal. High values mean a need for much substance, low ones inhibition by little substance. In turn, `C[C@@]12CC[C@@H]3[C@]4(CCC[C@]3(C)C(=O)OC4)[C@H]1CC[C@](C)(O)[C@H]2Cc1cc(O)ccc1O` [strongylophorine-8] gave an IC50 in experiment [1] of 7 µg/mL (≈ 16.3 µM).

In experiment [1], `NCCCNCCCN1CCCC/C=C\CCCCCCCC1` [MOTUPORAMINE C] returned an IC50 of 0.3 µg/mL (≈ 0.927 µM). On the same count and under the same terms, to `C[C@@]12CC[C@@H]3[C@]4(CCC[C@]3(C)C(=O)OC4)[C@H]1CC[C@](C)(O)[C@H]2CC1=CC(=O)C=CC1=O` belongs 7 µg/mL (≈ 16.4 µM). Regarding `C=C1CCC[C@H]2[C@](C)(CC3=C(O)C(=O)C=C(OC)C3=O)[C@@H](C)CC[C@]12C`, in experiment [2], the outcome was inactive.

The compound `COC1=CC(=O)C=C(C[C@H]2[C@]3(C)CC[C@@H]4[C@]5(CCC[C@]4(C)C(=O)OC5)[C@H]3CC[C@]2(C)O)C1=O` [strongylophorine-26] returned a half-maximal inhibitory concentration (IC50) in experiment [1] of 1 µg/mL (≈ 2.19 µM). Also, the outcome in experiment [3] was Active.

The values above are taken from ChEMBL document CHEMBL1148205, “Strongylophorine-26, a new meroditerpenoid isolated from the marine sponge Petrosia (Strongylophora) corticata that exhibits anti-invasion activity” (J Nat Prod, 2004).
